Common to all, as to assay type: cell-based
In assay [1] the test system is Streptococcus pneumoniae (ATCC6305). The assay can be described thus: Microtitre plate assay, IC90 determination, SPN 6305. The note with it: 90% inhibitory concentration for bacterial growth, 37° C., resazurin fluorescence; for IC90: Streptococcus pneumoniae, ATCC6305, 24 h, read-out: IC90 (μg/ml) SPN 6305; for IC90 (μg/ml) SPN 6305: 24 hours. As for the experimental part: (§1) The bacteria used in this study were grown overnight in flasks containing 100 ml Mueller-Hinton Broth (Becton Dickinson—cat. no. 275730) in sterile de-ionized water, with shaking, at 37° C. Stocks (0.5 ml/tube) were stored at −70° C. until use. Bacteria titrations were performed in microtiter plates to detect the TCID50, in which the TCID50 represents the dilution that gives rise to bacterial growth in 50% of inoculated cultures.
(§2) In general, an inoculum level of approximately 100 TCID50 was used for susceptibility testing.
(§3) Flat-bottom, sterile 96-well plastic microtiter plates were filled with 180 μl of sterile deionized water, supplemented with 0.25% BSA. Subsequently, stock solutions (7.8× final test concentration) of compounds were added in 45 μl volumes in column 2. Serial five-fold dilutions (45 μl in 180 μl) were made directly in the microtiter plates from column 2 to reach column 11. Untreated control samples with (column 1) and without (column 12) inoculum were included in each microtiter plate. Depending on the bacteria type, approximately 10 to 60 CFU per well of bacteria inoculum (100 TCID50), in a volume of 100 μl in 2.8× Mueller-Hinton broth medium, was added to the rows A to H, except column 12. The same volume of broth medium without inoculum was added to column 12 in row A to H. The cultures were incubated at 37° C. for 24 hours under a normal atmosphere (incubator with open air valve and continuous ventilation). At the end of incubation, one day after inoculation, the bacterial growth was quantitated fluorometrically. Therefore resazurin (0.6 mg/ml) was added in a volume of 20 μl to all wells 3 hours after inoculation, and the plates were re-incubated overnight. A change in colour from blue to pink indicated the growth of bacteria. The fluorescence was read in a computer-controlled fluorometer (Cytofluor Biosearch) at an excitation wavelength of 530 nm and an emission wavelength of 590 nm. The % growth inhibition achieved by the compounds was calculated according to standard methods. The IC90 (expressed in μg/ml) was defined as the 90% inhibitory concentration for bacterial growth.
(§4) BSU 3639 means Bacillus subtilis (ATCC43639); ECO 25922 means Escherichia coli (ATCC25922); EFA 14506 means Enterococcus faecalis (ATCC14506); EFA 29212 means Enterococcus faecalis (ATCC29212); LMO 49594 means Listeria monocytogenes (ATCC49594); PAE 27853 means Pseudomonas aeruginosa (ATCC27853); SMU 33402 means Streptococcus mutans (ATCC33402); SPN 6305 means Streptococcus pneumoniae (ATCC6305); SPY 8668 means Streptococcus pyogens (ATCC8668); STA 43300 means Staphylococcus aureus (ATCC43300); STA 25923 means Staphylococcus aureus (ATCC25923); STA 29213 means Staphylococcus aureus (ATCC29213); STA RMETH means methicilline resistant Staphylococcus aureus (MRSA) (a clinical isolate from the University of Antwerp). ATCC means American type tissue culture.
For orientation: Resazurin is reduced to fluorescent resorufin, in cell work by metabolically active cells.

Assay [2] concerns Streptococcus mutans (ATCC33402). The assay can be described thus: Microtitre plate assay, IC90 determination, SMU 33402. The note with it: 90% inhibitory concentration for bacterial growth, 37° C., resazurin fluorescence; for IC90 (μg/ml) SMU 33402: 24 hours. How it is done:
as §1, §2, §3, §4

For assay [3], the system named is Streptococcus pyogens (ATCC8668). The assay can be described thus: Microtitre plate assay, IC90 determination, SPY 8668. The settings on record: 90% inhibitory concentration for bacterial growth, 37° C., resazurin fluorescence. How it is done: as §1, §2, §3, §4
For assay [4], the system named is Listeria monocytogenes (ATCC49594). The assay can be described thus: Microtitre plate assay, IC90 determination, LMO 49594. The settings on record: 90% inhibitory concentration for bacterial growth, 37° C., resazurin fluorescence; for IC90: Listeria monocytogenes, ATCC49594, 24 h, read-out: IC90 (μg/ml) LMO 49594. How it is done: as §1, §2, §3, §4

≈ marks a conversion by molar mass, not a printed value.

On to `COc1nc2ccc(Br)cc2cc1C(c1ccccc1)C(O)(CCN1CCCC1)c1ccc2ccccc2c1` (stereo not drawn) [Compound 170], for which, in assay [1], the IC90 came out at 26 µg/mL (≈ 44.7 µM).

As for `COc1nc2ccc(Br)cc2cc1C(c1ccc(Cl)cc1)C(O)(CCN(C)C)c1cccc2ccccc12` (stereo not drawn) [Compound 73], the IC90 came to 11.8 µg/mL (≈ 20 µM) in assay [2] (Streptococcus mutans, ATCC33402, 24 h, read-out: IC90 (μg/ml) SMU 33402) and 14.8 µg/mL (≈ 25.1 µM) in assay [3] (Streptococcus, ATCC8668, 24 h, read-out: IC90 (μg/ml) SPY 8668). For the molecule `COc1nc2ccc(-c3ccco3)cc2cc1C(c1ccccc1)C(O)(CCN(C)C)c1cccc(F)c1` (stereo not drawn) [Compound 174], the IC90 in assay [4] was 10.2 µg/mL (≈ 20 µM). Turning to `COc1nc2ccc(Br)cc2cc1C(c1ccccc1)C(O)(CCN1CCOCC1)c1ccc2ccccc2c1` (racemic) [Compound 139], in assay [2], the “IC90 (μg/ml) SMU 33402” value came to 18.9 µg/mL (≈ 31.6 µM). The “IC90 (μg/ml) SPN 6305” value in assay [1] came out at 26.7 µg/mL (≈ 44.7 µM). Consider `COc1nc2ccc(Br)cc2cc1C(c1ccc(Cl)cc1)C(O)(CCN(C)C)c1ccccc1` (stereo not drawn) [Compound 37], for which, in assay [1], the “IC90 (μg/ml) SPN 6305” value amounted to 12.1 µg/mL (≈ 22.4 µM). Consider `COc1nc2ccc(Br)cc2cc1C(c1ccccc1)C(O)(CCN1CCCCC1)c1ccc2ccccc2c1` (stereo not drawn) [Compound 128], for which the IC90 in assay [4] is 9.4 µg/mL (≈ 15.8 µM).

Take `COc1nc2ccc(Br)cc2cc1C(c1ccccc1)C(O)(CCN1CCCC1)c1ccc2ccccc2c1` (racemic) [Compound 171]: in assay [3] (24 hours), the “IC90 (μg/ml) SPY 8668” value worked out at 11.6 µg/mL (≈ 19.9 µM).

As to `CNCCC(O)(c1ccccc1)C(c1ccccc1)c1cc2cc(Br)ccc2nc1OC` (stereo not drawn) [Compound D], the IC90 in assay [1] was found to be 4.9 µg/mL (≈ 9.97 µM). On to `COc1nc2ccc(Br)cc2cc1C(c1ccccc1)C(O)(CCN1CCOCC1)c1ccc2ccccc2c1` (racemic) [Compound 140], for which the “IC90 (μg/ml) SMU 33402” value in assay [2] turned out to be 9.5 µg/mL (≈ 15.9 µM). As for `COc1nc2ccc(Br)cc2cc1C(c1ccccc1)C(O)(CCN1CCN(c2ncccn2)CC1)c1ccc2ccccc2c1` (stereo not drawn) [Compound 209], in assay [1], the IC90 is 15.1 µg/mL (≈ 22.4 µM).

In the case of `COc1nc2ccc(Br)cc2cc1C(c1ccc(F)cc1)C(O)(CCN(C)C)c1cccc2ccccc12` (stereo not drawn) [Compound 206], the IC90 in assay [1] came to 12.8 µg/mL (≈ 22.3 µM). Consider `COc1nc2ccc(Br)cc2cc1C(c1ccccc1)C(O)(CCN1CCN(C)CC1)c1cccc2ccccc12` (racemic) [Compound 149], for which the “IC90 (μg/ml) LMO 49594” value in assay [4] (24 hours) was determined as 12.2 µg/mL (≈ 20 µM).

In the case of `COc1nc2cc(C)c(Br)cc2cc1C(c1ccccc1)C(O)(CCN(C)C)c1cc(F)cc(F)c1` (racemic) [Compound 227], the “IC90 (μg/ml) SPN 6305” value in assay [1] stood at 5.0 µg/mL (≈ 9 µM). As to `COc1nc2ccc(Br)cc2cc1C(c1ccccc1)C(O)(CCN1CCCCC1)c1ccccc1` (stereo not drawn) [Compound 47], the “IC90 (μg/ml) SPN 6305” value in assay [1] worked out at 6.9 µg/mL (≈ 12.6 µM). The same measure, in the same setting: in the case of `CCN(CCC(O)(c1ccc(F)cc1F)C(c1ccccc1)c1cc2cc(Br)ccc2nc1OC)Cc1ccccc1` (racemic) [Compound C] it was 15.9 µg/mL (≈ 25.2 µM).

For `COc1nc2ccc(Br)cc2cc1C(c1ccccc1)C(O)(CCN(C)C)c1ccccc1` (stereo not drawn) [Compound 4], the IC90 in assay [1] amounted to 12.7 µg/mL (≈ 25.1 µM).

Take `COc1nc2ccc(Br)cc2cc1C(c1ccccc1)C(O)(CCn1cncn1)c1ccccc1` (racemic) [Compound 53]: the “IC90 (μg/ml) SPN 6305” value in assay [1] stood at 5.9 µg/mL (≈ 11.1 µM). On the same count and under the same terms, with `COc1nc2cc(C)c(Br)cc2cc1C(c1ccccc1)C(O)(CCN(C)C)c1cccc2ccccc12` (racemic) [Compound 226] the figure was 14.3 µg/mL (≈ 25.1 µM). With `COc1nc2ccc(Br)cc2cc1C(c1ccccc1)C(O)(CCN(C)C)c1ccc(Cl)cc1` (stereo not drawn) [Compound 17], the IC90 in assay [4] stood at 10.8 µg/mL (≈ 20 µM); in assay [1], 0.5 µg/mL (≈ 0.926 µM). As to `COc1nc2ccccc2cc1C(c1ccccc1)C(O)(CCN(C)C)c1ccccc1` (stereo not drawn) [Compound 41], the IC90 in assay [4] stood at 17 µg/mL (≈ 39.9 µM).

Take `COc1nc2ccc(Br)cc2cc1C(c1ccccc1)C(O)(CCN(C)C)c1cccs1` (stereo not drawn) [Compound 20]: the “IC90 (μg/ml) SPN 6305” value in assay [1] was 2.6 µg/mL (≈ 5.08 µM).
